Patent publication US20130345257A1, “COMPOSITION FOR LUPUS NEPHRITIS AND METHODS OF MAKING AND USING THE SAME” (The Regents of the University of California, priority 2012, published 2013)
Entries after “also recorded” stand apart in the source; their conditions may differ.

How the values were obtained:
patients = conditions: dose of 2 g daily; dose-dependent; cited from earlier work
[1] = system: lupus nephritis in BWF1 mice; assay: Preventive treatment of pre-nephritic BWF1 mice (survival, proteinuria, creatinine, anti-dsDNA, renal histology, IgG/C3 deposition); format: in vivo, mouse; conditions: for Survival vs. controls: BWF1 females treated orally for 24 weeks before disease, p=0.028; for Survival vs. controls / Mice with proteinuria at 32 wks. of age: LAQ 1 and 25 mg/kg; for Survival, low dose treatment: LAQ 1 mg/kg 3 days a week, MMF 30 mg/kg 5 days a week, prior to anti-dsDNA and proteinuria; for Survival, low dose treatment / Chronic scarring (GS, FSGS, IFTA) in kidney / Serum/plasma IgG anti-dsDNA antibody levels: vs water; for Chronic scarring (GS, FSGS, IFTA) in kidney: higher doses, treated before proteinuria; for Onset of proteinuria beyond 32 weeks up until about 42 weeks: low dose: LAQ 1 mg/kg 3 times a week; for Serum/plasma IgG anti-dsDNA antibody levels / Prevention of proteinuria: preventive treatment; for Serum/plasma IgG anti-dsDNA antibody levels: LAQ 1 or 25 mg/kg; for Kidney specimens (histology, glomerular IgG and C3 deposits): after more than 50% of controls developed high proteinuria; for Mice with proteinuria at 32 wks. of age / Mean total histologic score (renal histology): treated before disease; for Mice with proteinuria at 32 wks. of age: water 50%, p<0.0001; for Mean total histologic score (renal histology): water 7.8, p<0.01; for Glomerular deposition of Ig and C3: treated prior to onset of clinical nephritis, vs water group p<0.001
Description: Clinical and immune cell changes were compared in groups of 10-12 BWF1 female mice in the following groups: • Group 1: Water orally 3 times a week for 24 weeks. • Group 2: Laquinimod 1 mg/kg orally 3 times a week for 24 weeks. • Group 3: Laquinimod 25 mg/kg orally 3 times a week for 24 weeks. • Group 4: Mycophenolate Mofetil 30 mg/kg orally […] for 24 weeks. • Group 5: Mycophenolate Mofetil 100 mg/kg orally […] for 24 weeks (“MMF 100”).
Preventive Group: 11-week old (pre-nephritic) BWF1 female mice were treated orally 3 times a week with a) water; b) laquinimod at 1 mg/kg (LAQ1, low dose) or c) 25 mg/kg (LAQ25, high dose) (Teva Pharmaceutical); or 5 times a week with d) mycophenolate mofetil at 30 mg/kg (MMF30, low dose) or e) 100 mg/kg (MMF100, high dose).
Proteinuria was evaluated weekly using Albustix (Siemens), serum creatinine using a commercial kit (Arbor Assays) and anti-dsDNA IgG antibodies by ELISA as described previously (10). See, e.g., FIGS. 1 and 2.
Kidney specimens of BWF1 mice (37 weeks of age in the prevention group or 7 and 11 weeks after institution of early or late therapies) were embedded in OCT compound and snap frozen. 4-5 μm an sections were air-dried, fixed with cold acetone and incubated with blocking buffer (anti-CD16/CD32 (1/50), 2% normal goat or rat serum, 2% BSA).
Immunoglobulin G and C3 complement glomerular deposition were investigated by incubation of cryosections with fluoroscein isothiocyanate (FITC)-conjugated goat anti-mouse IgG (1:50) (Sigma) or rat anti-mouse C3 (1:800) (Solulink) in blocking buffer for 2 hours at room temperature. Images were acquired using Nikon Eclipse TE2000-U microscope and MetaMorph 6.3 software (Sunnyvale, Calif.). Quantification of the area immunostained in tissue sections was made using the computer image analysis software ImageJ (rsbinfonihgov</>ij</>indexhtml). For histology, kidney sections were fixed in 10% formalin and 2 μm-paraffin sections were stained with H&E, PAS and methenamine silver (Jones) for histological analysis.
Histological analysis of glomerular pathology was done by an investigator blinded to treatment group and included acute inflammatory features (endocapillary hypercellularity, mesangial hypercellularity, cellular necrosis, cellular crescents, and interstitial inflammation), and chronic features (global glomerulosclerosis (GS), focal segmental glomerulosclerosis (FSGS), and interstitial fibrosis or tubular atrophy (IF/TA)). The severity of each feature was graded as 0 (absent), 1 (lesions involving up to 25% of the component evaluated), 2 (lesions in 26-50% evaluated) or 3 (lesions in >50%) in each field of the microscope at 400× magnification. The weighted total score of the clinical features was based on this formula: [endocapillary hypercellularity+mesengial hypercellularity+(cellular necrosis*2)+(cellular crescents*2)+interstitial inflammation)/5]+(GS+FSGS+IFTA)/3, with maximum score 5.2. A minimum of 25 glomeruli, of at least 10 mice per group, were scored. Scores from each individual mouse were added and averaged to yield the glomerulonephritis score.

MS patients = conditions: compared to placebo; cited from earlier work
[2] = system: CD3/28-stimulated CD4^+CD25^− T cell proliferation; assay: T cell suppression assay and function of MDSC sorted from spleens of treated mice; format: cell-based, mouse; conditions: data not shown
Description: Single cell suspensions of splenocytes or kidney cells were prepared using cell strainers (Fisher), followed by red blood cell lysis. Kidney lymphocytes were separated from connective tissue by centrifugation (15 minutes at 400g) in 30% Percoll (GE Healthcare). CD4^+CD25^− cells from spleen and kidney were isolated using the CD4^+CD25^+ regulatory T cell isolation kit according to manufacturer's protocol (Miltenyi). CD11b+ cells were isolated using EasySep mouse CD11b positive selection kit (StemCell Technologies), surface stained for Ly6C and Ly6G prior to sorting myeloid-derived suppressor cells (MDSC) using FACSAria II. Populations were >95% pure by FACS analysis. CD4^+CD25^− cells were labelled with 5 µM CFSE and stimulated with Dynabeads mouse T-cell activator CD3/CD28 (Invitrogen). Stimulated CD4^+CD25^− cells (4×10^4) were co-cultured with monocytic-MDSC(CD11b^+Ly6C^+Ly6G^−) or granulocytic-MDSC(CD11b^+Ly6C^+Ly6G^+) at a 1:1 ratio. Proliferation of CD4^+ cells was assayed after 4 days of incubation at 37° C., 5% CO2 by flow cytometry.

[3] = system: monocyte/macrophages (CD11b^+Ly6C^−Ly6G^−); assay: Expression of activation/costimulatory molecules on splenic monocyte/macrophages of treated mice; format: cell-based, mouse
Text: Spleens were removed 7 weeks after initiation of laquinimod treatment in PU^lo animals. Splenocytes were stimulated with TLR4 (LPS), 7 (imiquimod), or 9 (ODN) agonists, or PMA plus ionomycin, as described. FACS plots are representative of one experiment showing intracellular production of (A) IL-10 or (B) TNFα by monocyte/macrophages (CD11b+Ly6C−Ly6G−), and (C) IFNγ by CD4^+ T cells from laquinimod- or vehicle-treated mice. Graphs of IL-10, TNFα, and IFNγ production represent mean±SEM of cytokine production (n=6/gp, *p<0.05, **p<0.01, ***p<0.001 using two way ANOVA). […] Graphs depict mean±SD of mean fluorescence intensity (MFI) and are from three independent experiments with similar results. (n=4/gp, *p<0.05, **p<0.01, ***p<0.001 using t test).
Single-cell suspensions from spleen or kidneys were stained for extracellular markers for 20 min at 4° C. in PBS/1% FBS. Intracellular staining for Foxp3 and cytokines was performed using the Foxp3 Fixation/Permeabilization kit according to the manufacturer's protocol (eBioscience). Cells were acquired on a FACS LSR II (BD) and data was analyzed using Flowjo (Tree Star).

[4] = both LAQ doses (1, 25 mg/kg), MMF 100 mg/kg
[5] = preventive, LAQ 25 mg/kg, MMF 100 mg/kg
[6] = MMF 100 mg/kg, listed as Laquinimod

## COc1c(C)c2c(c(O)c1C/C=C(\C)CCC(=O)OCCN1CCOCC1)C(=O)OC2 [MMF, mycophenolate mofetil, reference compound]
patients
  Patients with gastrointestinal side effects: up to 20%
[1]; MMF 100 mg/kg
  Survival vs. controls: better
  Serum/plasma IgG anti-dsDNA antibody levels: suppressed; also recorded: lower anti-DNA levels
  Mice with proteinuria at 32 wks. of age: zero and none
  Mean total histologic score (renal histology): 0.9
[1]
  Survival, low dose treatment: significantly better; also recorded: still alive at 45 weeks
  Chronic scarring (GS, FSGS, IFTA) in kidney: less
  Glomerular deposition of Ig and C3: in the normal range; also recorded: significantly decreased
[1]; MMF 30 mg/kg
  Onset of proteinuria beyond 32 weeks up until about 42 weeks: effective in delaying onset of proteinuria
[1]; MMF 30 mg/kg, 18-week study period
  Prevention of proteinuria: did not
[1]; [4]
  Prevention of proteinuria: prevented proteinuria and prevented the appearance of proteinuria and none
[1]; [5]
  Kidney specimens (histology, glomerular IgG and C3 deposits): largely unremarkable

## CCN(C(=O)c1c(O)c2c(Cl)cccc2n(C)c1=O)c1ccccc1 [LAQ, 5-chloro-N-ethyl-4-hydroxy-1-methyl-2-oxo-N-phenyl-1,2-dihydroquinoline-3-carboxamide]
MS patients
  New MRI lesions in the brains of patients with RRMS: significant reduction
[1]; MMF 100 mg/kg
  Survival vs. controls: better
  Serum/plasma IgG anti-dsDNA antibody levels: suppressed; also recorded: significantly lower; also recorded: lower anti-DNA levels
  Mice with proteinuria at 32 wks. of age: zero
  Mean total histologic score (renal histology): 1.0
[1]; FIG. 5, treated three days of each week prior to proteinuria
  Development of proteinuria six weeks after the treatment: did not develop proteinuria
[1]
  Survival, low dose treatment: significantly better; also recorded: still alive at 45 weeks
  Chronic scarring (GS, FSGS, IFTA) in kidney: less
  Glomerular deposition of Ig and C3: in the normal range; also recorded: significantly decreased
[1]; MMF 30 mg/kg
  Onset of proteinuria beyond 32 weeks up until about 42 weeks: completely prevented onset of proteinuria
[1]; [6]
  Serum/plasma IgG anti-dsDNA antibody levels: suppressed
  Mice with proteinuria at 32 wks. of age: none
[1]; [4]
  Prevention of proteinuria: equivalent to MMF100 and completely prevented proteinuria and prevented the appearance of proteinuria and none
[1]; both LAQ doses (1, 25 mg/kg), MMF 100 mg/kg, listed as Laquinimod
  Prevention of proteinuria: equivalent to MMF 100
[1]; [5]
  Kidney specimens (histology, glomerular IgG and C3 deposits): largely unremarkable
[1]; preventive, LAQ 25 mg/kg, after 18 weeks of treatment
  Rise in serum creatinine levels: significantly delayed; also recorded: prevented a rise in serum creatinine
[1]; listed as laquinimod
  Glomerular deposition of Ig and C3: in the normal range
[2]
  Production of arginase and reactive oxygen species (MDSC): not affected
[3]; LPS 1 μg/mL
  Expression of MHC 11, CD86 and CD80 on M/M after in vitro stimulation with LPS: significantly lower
[3]; vs vehicle-treated animals, listed as laquinimod
  Ex vivo expression of MHC 11, CD86 and CD40 on M/M: decreased expression; also recorded: down-regulated
